These results are taken from ChEMBL document CHEMBL3608289, “Miltirone Is a Dual Inhibitor of P-Glycoprotein and Cell Growth in Doxorubicin-Resistant HepG2 Cells” (J Nat Prod, 2015).

Data set [1] relates to HepG2. The data set is described as follows: Effect on nonphosphorylated ERK1/ERK2 level in human HepG2 cells at 25 uM by Western blot analysis. Type of data set: ADME, cell-based. As to conditions: hepg2, 25 µM. Background: A western blot detects proteins with antibodies after separation by electrophoresis.
Data set [2] can be described thus: Cytotoxicity against human PLC/PRF/5 cells after 24 hrs by MTT assay. The format is functional, cell-based. As to conditions: PLC-PRF-5, 24 h.
Data set [3] has as its target Mitogen-activated protein kinase; ERK1/ERK2 (Homo sapiens) (UniProt P27361+P28482). The data set is described as follows: Inhibition of ERK1/2 phosphorylation in human doxorubicin-resistant HepG2 cells expressing p-gp at 1.56 to 25 uM by Western blot analysis in presence of NAC. Type of data set: cell-based.
Data set [4] relates to HepG2. The data set is described as follows: Increase of SAPK/JNK phosphorylation in human doxorubicin-resistant HepG2 cells expressing p-gp at 1.56 to 25 uM by Western blot analysis in presence of NAC. The format is cell-based.
In data set [5] the test system is HepG2. The data set is described as follows: Induction of oxidative stress in human doxorubicin-resistant HepG2 cells expressing p-gp assessed as increase of GSH/GSSG ratio at 1.56 to 3.12 uM after 24 hrs using DTNB by enzymatic kinetic method. The format is functional, cell-based.
Data set [6] has as its system HepG2. Kind of data set: Induction of oxidative stress in human doxorubicin-resistant HepG2 cells expressing p-gp assessed as decrease of GSH level per gram of protein at 1.56 to 3.12 uM after 24 hrs using DTNB by enzymatic kinetic method relative to control. Type of data set: functional, cell-based.
Data set [7] concerns HepG2. Kind of data set: Induction of ROS generation in human doxorubicin-resistant HepG2 cells expressing p-gp at 25 uM after 15 mins using H2DCFH dye by confocal microscopy. Type of data set: functional, cell-based.
Data set [8] relates to HepG2. Kind of data set: Increase of SAPK/JNK phosphorylation in human doxorubicin-resistant HepG2 cells expressing p-gp at 1.56 to 25 uM by Western blot analysis. The format is cell-based.
In data set [9] the test system is HepG2. Kind of data set: Induction of apoptosis in human doxorubicin-resistant HepG2 cells expressing p-gp assessed as activation of caspase-3/8/9 after 24 hrs by Western blotting. Type of data set: functional, cell-based.
Data set [10] concerns the target T1, MAP kinase p38 (Homo sapiens) (UniProt O15264+Q15759+Q16539+P53778). The data set is described as follows: Inhibition of p38 MAPK phosphorylation in human HepG2 cells at 1.56 to 25 uM by Western blot analysis. Type of data set: cell-based.
A short description of data set [11]: Cytotoxicity against human Hep3B cells after 24 hrs by MTT assay in presence of doxorubicin. Type of data set: functional, cell-based, Hep 3B2. (Tetrazolium assays rely on reduction of a dye to a coloured formazan, in cell work by metabolically active cells.)
The test system of data set [12] is HepG2. Kind of data set: Induction of oxidative stress in human doxorubicin-resistant HepG2 cells expressing p-gp assessed as decrease of GSH level per gram of protein at 6.25 to 25 uM after 24 hrs using DTNB by enzymatic kinetic method relative to control. Type of data set: functional, cell-based.
Data set [13] concerns HepG2. The data set is described as follows: Induction of apoptosis in human doxorubicin-resistant HepG2 cells expressing p-gp assessed as activation of caspase-3/8/9 at 12.5 after 24 hrs by Western blotting in presence of Z-LEHD-FMK. Type of data set: functional, cell-based.
In data set [14] the test system is HepG2. Kind of data set: Increase of SAPK/JNK phosphorylation in human HepG2 cells at 1.56 to 25 uM by Western blot analysis. Type of data set: cell-based.
Data set [15] deals with T1, MAP kinase p38 (Homo sapiens). Kind of data set: Inhibition of p38 MAPK phosphorylation in human HepG2 cells at 1.56 to 25 uM by Western blot analysis in presence of NAC. Type of data set: cell-based.
In data set [16] the test system is HepG2. The data set is described as follows: Induction of apoptosis in human HepG2 cells assessed as activation of caspase-3/8/9 at 12.5 after 24 hrs by Western blotting in presence of Z-VAD-FMK. The format is functional, cell-based.
For data set [17], the target named is T1, MAP kinase p38 (Homo sapiens). The data set is described as follows: Inhibition of p38 MAPK phosphorylation in human HepG2 cells at 1.56 to 25 uM by Western blot analysis in presence of SB203580. Type of data set: cell-based.
Data set [18] deals with HepG2. Kind of data set: Effect on nonphosphorylated SAPK/JNK level in human doxorubicin-resistant HepG2 cells expressing p-gp at 25 uM by Western blot analysis. Type of data set: ADME, cell-based. As to conditions: hepg2, 25 µM.
Data set [19] relates to HepG2. Kind of data set: Cytotoxicity against human HepG2 cells after 24 hrs by MTT assay in presence of doxorubicin. The format is functional, cell-based. Conditions: HepG2, 24 h.
Data set [20] deals with HepG2. The data set is described as follows: Effect on nonphosphorylated p38 MAPK level in human HepG2 cells at 25 uM by Western blot analysis. Type of data set: ADME, cell-based. As to conditions: hepg2, 25 µM.
The test system of data set [21] is HepG2. Kind of data set: Induction of apoptosis in human doxorubicin-resistant HepG2 cells expressing p-gp assessed as increase in PARP cleavage after 24 hrs by Western blotting. Type of data set: functional, cell-based.
The test system of data set [22] is HepG2. Kind of data set: Induction of ROS generation in human HepG2 cells after 15 to 30 mins using CM-H2DCFDA by flow cytometry. Type of data set: functional, cell-based. (In general: A flow cytometer gives signals particle by particle.)
Data set [23] deals with HepG2. Kind of data set: Induction of necrosis in human doxorubicin-resistant HepG2 cells expressing p-gp assessed as LDH leakage at >50 uM after 24 hrs. The format is functional, cell-based.
The test system of data set [24] is HepG2. Kind of data set: Competitive inhibition of p-glycoprotein in human doxorubicin-resistant HepG2 cells assessed as reduction of doxorubicin efflux after 1 hr by primary Dixon plot analysis. Type of data set: cell-based.

The EC50 is the concentration at which the effect is half-maximal.

Calls of active or inactive are those of the source. The rule behind the calls is not given here.

Mitogen-activated protein kinase; ERK1/ERK2 (Homo sapiens), sequence (P27361 whole entry, looked up): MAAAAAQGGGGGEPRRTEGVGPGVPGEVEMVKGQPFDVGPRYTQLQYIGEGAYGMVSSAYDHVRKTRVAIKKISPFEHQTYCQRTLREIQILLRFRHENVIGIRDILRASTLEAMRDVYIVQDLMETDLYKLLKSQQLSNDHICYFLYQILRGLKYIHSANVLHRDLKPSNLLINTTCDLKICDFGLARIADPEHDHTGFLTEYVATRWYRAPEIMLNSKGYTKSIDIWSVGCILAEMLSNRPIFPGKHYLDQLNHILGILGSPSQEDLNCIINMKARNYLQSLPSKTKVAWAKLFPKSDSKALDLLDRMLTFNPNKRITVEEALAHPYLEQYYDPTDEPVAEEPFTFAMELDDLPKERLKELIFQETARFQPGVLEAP
Mitogen-activated protein kinase; ERK1/ERK2 (Homo sapiens), sequence (P28482 whole entry, looked up): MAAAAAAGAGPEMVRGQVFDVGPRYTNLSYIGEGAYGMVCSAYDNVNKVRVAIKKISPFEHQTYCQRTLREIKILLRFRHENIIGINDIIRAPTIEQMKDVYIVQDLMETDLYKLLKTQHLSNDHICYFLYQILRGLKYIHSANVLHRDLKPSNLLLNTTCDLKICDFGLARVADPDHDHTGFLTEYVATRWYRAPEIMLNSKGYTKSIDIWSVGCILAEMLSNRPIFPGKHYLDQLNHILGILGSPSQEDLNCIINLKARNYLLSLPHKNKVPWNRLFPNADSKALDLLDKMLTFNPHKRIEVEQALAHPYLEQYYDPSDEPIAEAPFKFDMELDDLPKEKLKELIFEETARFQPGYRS

With `CC(C)C1=Cc2ccc3c(c2C(=O)C1=O)CCCC3(C)C` [MILTIRONE], the Activity entry in the data set with HepG2 [1] is “Non-toxic”; with HepG2 [18], “Non-toxic”; in the data set on HepG2 [20] it was “Non-toxic”; with HepG2 [22] it was “Dose-dependent effect”. The EC50 in data set [2] stood at 27.1 µM; in data set [11], 6.6 µM; with HepG2 [19], 30.9 µM. For the same compound, the inhibition entry (in data set [3]; in the data set with HepG2 [4]; in data set [15]; in data set [17]) was “inactive” in each case. Moreover, the result in the data set on HepG2 [5], in the data set with HepG2 [6], with HepG2 [13] and with HepG2 [16] was inactive. Moreover, the result in the data set with HepG2 [7], in the data set with HepG2 [8], in the data set on HepG2 [9], in the data set with HepG2 [12], with HepG2 [14] and in the data set on HepG2 [21] was Active. In addition, the outcome in the data set with HepG2 [23] was Active. The inhibition entry (in [10]; in the data set with HepG2 [24]) was “Active” throughout.
